In paper PMC11378297, “Discovery and Profiling of New Multimodal Phenylglycinamide Derivatives as Potent Antiseizure and Antinociceptive Drug Candidates” (ACS Chemical Neuroscience, 2024):

Key:
[1] = molecular target: T1, CYP3A4 (Homo sapiens, UniProt P08684); experiment: CYP3A4 P450-Glo assay; format: in vitro ADME; conditions: 10 μM
T1 construct: purchased Promega (Madison, WI, USA)
Procedure: The inhibition effect of enantiomers on CYP2C9 was also determined, but only at the highest concentrations (Figure 10C). In summary, the potential for DDIs of the tested enantiomers in comparison to the reference CYP inhibitors was estimated as very low.
Figure 10 Influence of (R)-31, (R)-32, and (R)-33 on: CYP3A4 activity (A) and the reference inhibitor ketoconazole (KE), CYP2D6 activity (B) and the reference inhibitor quinidine (QD), CYP2C9 activity (C) and the reference inhibitor sulfaphenazole (SE). The results are presented as means + SD. Statistical significance was evaluated by one-way ANOVA, followed by Bonferroni’s multiple comparison post hoc test (Graph Pad Prism 8.0.1 software) *p < 0.05, **p < 0.01, ***p < 0.001, ****p < 0.0001.
All assays and protocols used for the evaluation of compounds ADME-Tox parameters were described previously.[35]−[38],[95]−[98] […] The vitality of the cells was assessed using the CellTiter 96 AQueous Non-Radioactive Cell Proliferation Assay (Promega, Madison, WI, USA), following a 48 h incubation period with either the reference medication, doxorubicin (DOX), or serial dilutions of the investigated compounds. Using an EnSpire PerkinElmer microplate reader (Waltham, MA, USA), the luminescent signal and absorbances (measured at 490 nm) in DDIs and safety assays were determined. […]

[2] = thermogravimetric analysis and differential scanning calorimetry; format: physicochemical
Text: Bearing in mind that the active pharmaceutical ingredients are often exposed to heat upon a final dosage form manufacturing (e.g., granulation, hot melt-extrusion, and coating), high thermal stability of the compound is a favorable feature predisposing the molecule (R)-32 for a further development. Another property that may considerably slow down the process of bringing a new molecule to the market is limited solubility in water. Thus, a simple approach to verify if it would be possible to overcome this drawback by the physical modification of its crystalline structure was also undertaken. […] The melting endotherm of crystalline (R)-32 had the onset ca. 115 °C and the minimum at 126 °C. After a simple thermal treatment such as cooling of the melt, the amorphous form of (R)-32 was obtained. Its glass transition temperature was relatively low, ca. 30 °C, which means that (R)-32 should be coprocessed with excipients of antiplasticizing properties to develop enabling formulations stable at ambient storage conditions.
A Mettler Toledo thermogravimetric analysis/SDTA 851^e apparatus calibrated with indium, zinc, and aluminum was used. Its accuracy was equal to 10^–6 g. The samples were placed in an open aluminum crucible. The measurements were performed in Ar 5.0 (50 mL/min). The temperature ranged from 25 to 400 °C. The constant heating rate of 10 °C/min was applied. […]

[3] = PAMPA (Precoated PAMPA Plate System Gentest) passive permeability; format: in vitro ADME
[4] = tested on: HepG2 cell line; experiment: hepatotoxicity, HepG2 cell viability; format: cell-based, human; conditions: 25 μM, 72 h of incubation (Figure 11)
Procedure: The hepatotoxicity potential was assessed with the HepG2 cell line and the reference cytostatic drug doxorubicin.
The results are presented as means + SD. Statistical significance was evaluated by one-way ANOVA, followed by Bonferroni’s multiple comparison post hoc test (Graph Pad Prism 8.0.1 software, San Diego, CA, USA): *p < 0.05, ***p < 0.001, ****p < 0.0001 vs negative control (DMSO 1% in growth media).

T1 sequence (P08684 whole entry): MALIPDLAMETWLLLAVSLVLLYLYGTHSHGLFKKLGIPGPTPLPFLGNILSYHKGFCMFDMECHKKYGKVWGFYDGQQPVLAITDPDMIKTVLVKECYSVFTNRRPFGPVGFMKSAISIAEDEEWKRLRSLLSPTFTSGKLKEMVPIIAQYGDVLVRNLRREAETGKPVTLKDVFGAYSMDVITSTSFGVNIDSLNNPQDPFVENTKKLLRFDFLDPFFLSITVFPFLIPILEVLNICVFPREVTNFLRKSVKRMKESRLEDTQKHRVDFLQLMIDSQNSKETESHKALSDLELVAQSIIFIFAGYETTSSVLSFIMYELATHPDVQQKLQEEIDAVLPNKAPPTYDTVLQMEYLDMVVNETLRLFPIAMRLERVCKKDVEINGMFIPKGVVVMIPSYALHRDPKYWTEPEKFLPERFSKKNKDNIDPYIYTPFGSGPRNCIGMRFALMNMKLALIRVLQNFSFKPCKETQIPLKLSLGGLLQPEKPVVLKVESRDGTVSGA

Q: With `CC(=O)N[C@@H](C(=O)N1CCN(c2cccc(C(F)(F)F)c2)CC1)c1ccccc1` [(R)-31, (R)-N-(2-Oxo-1-phenyl-2-(4-(3-(trifluoromethyl)phenyl)piperazin-1-yl)ethyl)acetamide] as the compound, how does the “effect on CYP3A4 activity” value [1] read?
A: Its value is “significantly inhibited”.

Q: For `CC(=O)N[C@@H](C(=O)N1CCN(c2cccc(OC(F)(F)F)c2)CC1)c1ccccc1` [(R)-32, (R)-N-(2-Oxo-1-phenyl-2-(4-(3-(trifluoromethoxy)phenyl)piperazin-1-yl)ethyl)acetamide], which “thermally stable while heating up to (weight loss noted, TGA)” value ([2]; 10 °C/min) is on record?
A: Its value is 190 °C.

Q: What about the “glass transition temperature of the amorphous form (DSC)” value ([2]; after cooling of the melt) of the same compound?
A: The value was “ca. 30 °C”.

Q: And the “Pe relative to that of caffeine” value [3]?
A: The value was “approximately 70%”.

Q: And the Papp ([3]; passive blood–brain barrier permeability model, read-out: permeability coefficient (Pe))?
A: The Papp was 2.42 ×10⁻⁶ cm/s.

Q: With `CC(=O)N[C@@H](C(=O)N1CCN(c2cccc(SC(F)(F)F)c2)CC1)c1ccccc1` [(R)-33, (R)-N-(2-Oxo-1-phenyl-2-(4-(3-((trifluoromethyl)thio)phenyl)piperazin-1-yl)ethyl)acetamide] as the compound, how does the HepG2 cell viability [4] read?
A: The HepG2 cell viability was “reduced slightly, but statistically significant cell viability”.
